In brackets after ≈: the same amount, converted by molar mass. Numbered stars: 1 amine (or outer) side, 2 acyl side, 3 side chain; on linkers, the order of the positions; unused ones are H or OH. Bridge positions count the residues as written; N and C are the ends. Square brackets hold non-standard residues; d marks the D form. Peptide text beside a SMILES is read from it. * marks the point of attachment. ξ: configuration not given here. X1 = N=C1NCCC([C@H](N[*:1])C(=O)[*:2])N1; ΔAla(Z-3-ureido) = NC(=O)N/C=C(\N)C(=O)O; ξβ3hOrn = NCCCC(N)CC(=O)*; Dap = NC[C@H](N)C(=O)O
Assays:
Type in all cases: functional, organism-based
[1] = tested on: Mycolicibacterium smegmatis; assay: Antimycobacterial activity against Mycobacterium smegmatis by GFP-based fluorescence assay
[2] = tested on: Mycolicibacterium smegmatis; assay: Antimycobacterial activity against Mycobacterium smegmatis assessed as growth inhibition in mid-logarithmic phase by spectrophotometry
[3] = tested on: Mycolicibacterium smegmatis; assay: Antimycobacterial activity against Mycobacterium smegmatis grown in nitrogen -limited broth medium assessed as growth inhibition in mid-logarithmic phase by GFP-based fluorescence assay; conditions: Mycolicibacterium smegmatis
[4] = tested on: Mycolicibacterium smegmatis; assay: Antimycobacterial activity against Mycobacterium smegmatis grown in carbon-limited broth medium assessed as growth inhibition in mid-logarithmic phase by spectrophotometry; conditions: Mycolicibacterium smegmatis
[5] = tested on: Mycolicibacterium smegmatis; assay: Antimycobacterial activity against Mycobacterium smegmatis grown in nitrogen -limited broth medium assessed as growth inhibition in mid-logarithmic phase by spectrophotometry; conditions: Mycolicibacterium smegmatis
[6] = tested on: Mycolicibacterium smegmatis; assay: Antimycobacterial activity against Mycobacterium smegmatis grown in Luria-Bertani broth medium assessed as growth inhibition in mid-logarithmic phase by GFP-based fluorescence assay; conditions: Mycolicibacterium smegmatis
[7] = tested on: Mycolicibacterium smegmatis; assay: Antimycobacterial activity against Mycobacterium smegmatis grown in carbon-limited broth medium assessed as growth inhibition in mid-logarithmic phase by GFP-based fluorescence assay; conditions: Mycolicibacterium smegmatis
[8] = tested on: Mycolicibacterium smegmatis; assay: Antimycobacterial activity against Mycobacterium smegmatis grown in Luria-Bertani broth medium assessed as growth inhibition in mid-logarithmic phase by spectrophotometry; conditions: Mycolicibacterium smegmatis

Work on `C[C@@H]1NC(=O)[C@@H](N)CNC(=O)[C@H](C2CCNC(=N)N2)NC(=O)/C(=C/NC(N)=O)NC(=O)[C@H](CNC(=O)CC(N)CCCN)NC1=O.N=C1NCCC([C@@H]2NC(=O)/C(=C/NC(N)=O)NC(=O)[C@H](CNC(=O)CC(N)CCCN)NC(=O)[C@H](CO)NC(=O)[C@@H](N)CNC2=O)N1` (stereo partly drawn) [CAPREOMYCIN] (H-[Dap]S[Dap](ξβ3hOrn)[ΔAla(Z-3-ureido)][X1]; lactam 1-C) yielded an MIC [1] of 12.5 µM, an IC50 ([1]; read-out: IC50) of 1.78 µM and an IC50 [2] of 2.12 µM. The MIC [2] was 12.5 µM.

Work on `O=C(O)c1cn(C2CC2)c2cc(N3CCNCC3)c(F)cc2c1=O` [CIPROFLOXACIN] yielded an IC50 [1] of 1.07 µM, an MIC [1] of 12.5 µM (≈ 4.14 µg/mL) and an IC50 [2] of 1.98 µM. The MIC [2] was 12.5 µM (≈ 4.14 µg/mL).

With `CC[C@@H](CO)NCCN[C@@H](CC)CO` [ETHAMBUTOL] the MIC [1] was 12.5 µM (≈ 2.55 µg/mL), the IC50 ([1]; read-out: IC50) was 3.2 µM and the IC50 [2] was 3.66 µM. For the same compound, the MIC [2] was 12.5 µM (≈ 2.55 µg/mL).

`CCc1cc(C(N)=S)ccn1` [ETHIONAMIDE] was tested, and the MIC [1] was 100 µM (≈ 16.6 µg/mL), the IC50 ([1]; read-out: IC50) was 6.75 µM and the IC50 [2] was 7.66 µM. It also gave an MIC [2] of 100 µM (≈ 16.6 µg/mL).

With `CO[C@H]1/C=C/O[C@@]2(C)Oc3c(C)c(O)c4c(O)c(c(/C=N/N5CCN(C)CC5)c(O)c4c3C2=O)NC(=O)/C(C)=C\C=C\[C@H](C)[C@H](O)[C@@H](C)[C@@H](O)[C@@H](C)[C@H](OC(C)=O)[C@@H]1C` [RIFAMPIN] the MIC [1] was 6.25 µM (≈ 5.14 µg/mL), the IC50 ([1]; read-out: IC50) was 3.11 µM and the IC50 [2] was 4.36 µM. It also gave an MIC [2] of 6.25 µM (≈ 5.14 µg/mL).

With `CN[C@@H]1[C@H](O[C@H]2[C@H](O[C@H]3[C@H](O)[C@@H](O)[C@H](N=C(N)N)[C@@H](O)[C@@H]3N=C(N)N)O[C@@H](C)[C@]2(O)C=O)O[C@@H](CO)[C@H](O)[C@H]1O` [STREPTOMYCIN] the MIC [1] was 1.56 µM (≈ 0.907 µg/mL), the IC50 ([1]; read-out: IC50) was 0.48 µM and the IC50 [2] was 0.5 µM. The MIC [2] was 1.56 µM (≈ 0.907 µg/mL).

`CN(C)[C@@H]1C(O)=C(C(N)=O)C(=O)[C@@]2(O)C(O)=C3C(=O)c4c(O)cccc4[C@@](C)(O)[C@H]3C[C@@H]12` [TETRACYCLINE] was tested, and the MIC [1] was 6.25 µM (≈ 2.78 µg/mL), the IC50 ([1]; read-out: IC50) was 0.33 µM and the IC50 [2] was 0.41 µM. The MIC [2] was 6.25 µM (≈ 2.78 µg/mL).

For `CN[C@H](CC(C)C)C(=O)N[C@H]1C(=O)N[C@@H](CC(N)=O)C(=O)N[C@H]2C(=O)N[C@H]3C(=O)N[C@H](C(=O)N[C@H](C(=O)O)c4cc(O)cc(O)c4-c4cc3ccc4O)[C@H](O)c3ccc(c(Cl)c3)Oc3cc2cc(c3O[C@@H]2O[C@H](CO)[C@@H](O)[C@H](O)[C@H]2O[C@H]2C[C@](C)(N)[C@H](O)[C@H](C)O2)Oc2ccc(cc2Cl)[C@H]1O` [VANCOMYCIN], the IC50 [3] was 11.1 µM, the MIC [3] was 25 µM (≈ 36.2 µg/mL) and the IC50 [4] was 16.7 µM. For the same compound, the MIC [4] was 25 µM (≈ 36.2 µg/mL), the IC50 [5] was 11.1 µM and the MIC [5] was 25 µM (≈ 36.2 µg/mL). For the same compound, the IC50 [6] was 3.18 µM, the MIC [6] was 12.5 µM (≈ 18.1 µg/mL) and the IC50 [7] was 16.7 µM. It also gave an MIC [7] of 25 µM (≈ 36.2 µg/mL), an IC50 [8] of 3.18 µM and an MIC [8] of 12.5 µM (≈ 18.1 µg/mL).

— ChEMBL document CHEMBL1649296, “Modifying culture conditions in chemical library screening identifies alternative inhibitors of mycobacteria” (Antimicrob Agents Chemother, 2009)
